In experiment [1] the test system is EPSCs in LA neurons (thalamic input). The experiment is described as follows: Whole-cell patch-clamp recording of EPSCs in lateral amygdala neurons in slices. In kind it is cell-based, mice. How it is done: Transverse slices ([…]) of the amygdala were transferred to a room temperature submerged recovery chamber with oxygenated (95% O2 and 5% CO2) ACSF solution as described above. After a one hour recovery, slices were placed in a recording chamber on the stage of an Axioskop 2FS microscope (Zeiss) equipped with infrared DIC optics for visualized whole-cell patch clamp recordings. Excitatory postsynaptic currents were recorded from cells in the lateral amygdala with an Axon 200B amplifier (Axon Instruments, Calif., USA). Electrical stimulations (200 μsec duration) were delivered by a bipolar tungsten stimulating electrode placed in the internal capsule (thalamic inputs) (Tsvetkov et al., 2004). EPSCs were induced by repetitive stimulations at 0.02-0.05 Hz and neurons were voltage clamped at −70 mV. In all experiments, the stimulus intensity was adjusted to produce synaptic responses with an amplitude of 70-100 pA. […] Access resistance was 15-30 M ? and monitored throughout the experiment. […]
In general terms: In patch-clamp work, channel activity is measured electrically.

The target in another experiment is AMPA receptors. The conditions noted are these: cited from earlier work.
For the next experiment, the system named is KARs. The note with it: SYM2206 at 100 μM; cited from earlier work.
A further experiment concerns GluR5. The note with it: treated animals; cited from earlier work.

In the case of `CCCNC(=O)N1N=C(c2ccc(N)cc2)c2cc3c(cc2C1C)OCO3` (racemic) [SYM2206, (±)-4-(4-aminophenyl)-1,2-dihydro-1-methyl-2-propylcarbamoyl-6,7-methylenedioxyphthalazine], the “effect on EPSCs” value in experiment [1] (bath application of AP5 (50 μM) plus SYM2206 (100 μM), n=17, LA neurons) is on record as “reduced, but did not completely block”. Also, the IC50 on AMPA receptors (AMPA receptors, read-out: half-maximal inhibitory concentration) is 1000 to 2000 nM. The “inhibition of AMPA receptors” value with AMPA receptors (SYM2206 at 100 μM) is “maximal inhibition”. For the same compound, in the experiment on KARs, the “inhibition of KARs” value is reported as 20-30%.
For the compound `N#Cc1cc2[nH]c(=O)c(=O)[nH]c2cc1[N+](=O)[O-]` [CNQX], in experiment [1] (CNQX 20 μM, after AP5 plus SYM2206, n=5), the “effect on residual (SYM2206-insensitive) current” value is “completely blocked”.
For `O=C(O)c1ccc(C[C@H]2CC[C@H]3CN[C@H](C(=O)O)C[C@H]3C2)cc1` [LY382884], the “behavioral responses to formalin and Complete Freund's adjuvant (CFA)” value in the experiment with GluR5 is reported as “reduced”.

Source of the values: patent US20060233711A1, “Method for treating conditions associated with fear memory” (priority 2005, published 2006).
